Source: patent US20240285670A1, “THERAPEUTIC TREATMENT OF TUMORS BY BLOCKING THE HEME SYNTHESIS-EXPORT AXIS” (Università degli Studi di Torino, priority 2021, published 2024)

Columns and labels:
Format in all cases: cell-based, human
[1] = system: BTECs; assay: BTECs counting (cell proliferation); conditions: FLVCR1a-silenced vs scramble shRNA BTECs, 24, 48 and 72 hours
Text: (A) BTECs counting, as a readout of cell proliferation, at the indicated time points. […] Data represent mean±SEM, n=4. For statistical analyses, a two-way analysis of variance was used, followed by the Bonferroni correction for multiple group comparisons; ***p<0.001. (B) Quantification of BTECs migration rate in wound-healing assay. […] Data represent mean±SEM, n=32. For statistical analyses, a nonparametric unpaired Mann-Whitney test was used; ***p<0.001. (C) In vitro tubulogenesis assay on matrigel. […] The number of nodes counted within the neo-formed vascular networks is shown. Data represent mean±SEM; n=10. For statistical analyses, a nonparametric unpaired Mann-Whitney test was used; **p<0.01.
For cell counting, 1*10^4 BTECs were seeded in 12-well plates and counted at 24, 48 and 72 hours after plating, as a readout of cell proliferation. Three independent experiments were performed.

[2] = system: SKCO1 cells; assay: TCA cycle flux in SKCO1 cells; conditions: FLVCR1a-silenced vs scramble shRNA SKCO1 cells
Text: (§1) TCA cycle flux is reported in the centre of the figure and expressed as pmol CO2/h/mg protein. Data represent mean±SEM, n=3. For statistical analyses, an unpaired Student's t-test was used. **=p<0.01. Moreover, TCA cycle enzymes activities are reported in boxes and expressed as mU/mg mitochondrial proteins. Data represent mean±SEM, n=3. For statistical analyses, an unpaired Student's t-test was used; *=p<0.05, ***=p<0.001. […] Results are expressed as pmol CO2/h/mg protein. Data represent mean±SEM, n=3. For statistical analyses, an unpaired Student's t-test was used; *=p<0.05, **=p<0.01.
The glucose flux through TCA cycle was measured by radiolabeling cells with 2 μCi/ml [6-^14C]-glucose (55 mCi/mmol; PerkinElmer, Waltham, MA, USA, catalog n° NEC045X). Cell suspensions were incubated for 1 hour in a closed experimental system to trap the ^14CO2 developed from [^14C]-glucose. The reaction was stopped by injecting 0.5 ml of 0.8N HClO4. The amount of glucose transformed into CO2 through the TCA cycle was calculated as described (Riganti et al., 2004) and expressed as pmoles CO2/h/mg cell proteins.

[3] = system: Caco2 cells; assay: TCA cycle enzymes activities in Caco2 cells; conditions: FLVCR1a knockdown vs scramble shRNA Caco2 cells
Text: as §1, with “*=p<0.05, **=p<0.01. […]” for “*=p<0.05, **=p<0.01.”
The enzymatic activities of citrate synthase, α-ketoglutarate dehydrogenase, succinate dehydrogenase and malate dehydrogenase were measured on 10 μg mitochondrial proteins using the Citrate Synthase Assay Kit (Sigma Aldrich, St. Louis, MO USA, catalog n° MAK193), Alpha Ketoglutarate (alpha KG) Assay Kit (Abcam, Cambridge, UK, catalog n° ab83431), Malate Dehydrogenase Assay Kit (Sigma Aldrich, St. Louis, MO USA, catalog n° MAK196), Succinate Dehydrogenase Activity Colorimetric Assay Kit (BioVision, Milpitas, CA USA, catalog n° K660), as per manufacturer's instructions. Results were expressed as mU/mg mitochondrial proteins.

[4] = system: Caco2 cells; assay: Mitochondrial ATP levels in Caco2 cells; conditions: FLVCR1a-silenced vs scramble shRNA Caco2 cells
Text: (§2) (A, C, E) Activities of the mitochondrial electron transport chain complexes I-IV. FLVCR1a-silenced Caco2 (A), SKCO1 (C) or C80 cells (E) are compared to cells expressing a scramble shRNA. Results were expressed as nmol NAD^+/min/mg mitochondrial protein for complex I, nmol reduced cytochrome c/min/mg mitochondrial protein for complexes II-III, nmol oxidized cytochrome c/min/mg mitochondrial protein for complex IV. Data represent mean±SEM, n=3. For statistical analyses, an unpaired Student's t-test was used; *=p<0.05, **=p<0.01. (B, D, F) Mitochondrial ATP levels measured by a bioluminescent assay kit. FLVCR1a-silenced Caco2 (B), SKCO1 (D) or C80 cells (F) are compared to cells expressing a scramble shRNA. Results are expressed as nmol/mg mitochondrial proteins. […] Results were expressed as nmol NAD^+/min/mg mitochondrial protein for complex I, nmol reduced cytochrome c/min/mg mitochondrial protein for complexes II-III, nmol oxidized cytochrome c/min/mg mitochondrial protein for complex IV. […] (H) Mitochondrial ATP levels measured by a bioluminescent assay kit in Caco2 cells overexpressing FLVCR1a (indicated as FLVCR1a+) compared to cells stably transduced with an empty vector. Results are expressed as nmol/mg mitochondrial proteins. […]
(§3) ATP levels in mitochondria extracts were assessed by the ATP Bioluminescent Assay Kit (Sigma-Aldrich, St. Louis, MO USA, catalog n° FLAA). […]

[5] = system: C80 cells; assay: Mitochondrial ATP levels in C80 cells; conditions: FLVCR1a-silenced vs scramble shRNA C80 cells
Text: as §2, §3

FLVCR1a shRNA: shRNA specifically down-regulating FLVCR1a without targeting FLVCR1b; pLKO.1 lentiviral clone TRCN0000059599, antisense SEQ ID No.: 2 (antisense TTGCTAATGATGCTGTACTGG; sense CCAGTACAGCATCATTAGCAA)
cell proliferation (cell counting) [1]: reduced proliferation
TCA cycle flux [2]: Increased TCA cycle flux
TCA cycle enzymes activity (citrate synthase, α-ketoglutarate dehydrogenase, succinate dehydrogenase, malate dehydrogenase) [3]: enhanced activity
ATP levels in mitochondria [4]: significantly higher ATP levels in mitochondria
mitochondrial ATP levels [5]: increased
